Experimental data: patent publication US20180126048A1, “NANOPARTICLE-MEDICATED GENETIC DELIVERY OF GROWTH INHIBITING GENES ON BALLOON ANGIOPLASTY TO SUPPRESS INTIMAL HYPERPLASIA” (Board of Education of the Vocational Schools in the County …, priority 2014, published 2018)

System: left carotid artery
Experiment: Glycerol infusion into the artery (cannulation) during carotid injury surgery
Assay type: in vivo, rat
Settings: glycerol infused into the artery, compared to glycerol coated on a balloon
Experimental: In total, nine surgeries were performed on nine separate rats. The initial two surgeries represented the first control group—standard left carotid artery injury surgeries. The next two surgeries comprised the second control group—rats which received a standard left carotid artery injury surgery, modified slightly to include a glycerol coating without nanoparticles-carried plasmids on the catheter to test whether or not the substance (without the shRNA-encoding plasmid) had any noteworthy effects on the artery and/or the overall health of the animal before the nanoparticle treatment was delivered. The balloon was immersed in glycerol until 100 μL had covered its surface. Another two surgeries served as an experimental group to compare the method of delivery with the glycerol-coated balloon to a more direct method of delivery: infusion. After the arteriotomy was performed, the artery was cannulated (filled) with a syringe of 100 μL of 50% glycerol and flushed. The procedure then proceeded as previously described. The last three surgeries served as the experimental group utilizing the nanoparticles suspended in the glycerol that coated the balloon.
Intimal hyperplasia was further quantified using a software program, Image J, developed by the National Institutes of Health, which calculates the intimal area through image analysis. […]

OCC(O)CO [glycerol]
blood clot formation after infusion: blood clot formation
